# Reference: PubChem BioAssay (NCI)
#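 Method: 48-hour compound exposure of cells in 96-well plates, five concentrations, linear interpolation of endpoints. Here, GI50 denotes the concentration required for 50% inhibition of growth. TGI marks complete inhibition of growth.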
# Key:
# Assay in all cases: NCI anticancer screen, dose series, 48 h
# BT-549 breast = tested on: BT-549 breast
# TK-10 renal = tested on: TK-10 renal
# COLO 205 colon = tested on: COLO 205 colon
# NCI-H23 lung = tested on: NCI-H23 lung
# ACHN renal = tested on: ACHN renal
# NCI-H226 lung = tested on: NCI-H226 lung
# K-562 leukemia = tested on: K-562 leukemia
# SNB-19 CNS = tested on: SNB-19 CNS
# SF-295 CNS = tested on: SF-295 CNS
# CCRF-CEM leukemia = tested on: CCRF-CEM leukemia
# RXF 393 renal = tested on: RXF 393 renal
# OVCAR-8 ovarian = tested on: OVCAR-8 ovarian
# M14 melanoma = tested on: M14 melanoma
# A498 renal = tested on: A498 renal
# NCI-H460 lung = tested on: NCI-H460 lung
# SF-539 CNS = tested on: SF-539 CNS
# SNB-75 CNS = tested on: SNB-75 CNS
# DU-145 prostate = tested on: DU-145 prostate
# CAKI-1 renal = tested on: CAKI-1 renal
# HOP-62 NSCLC = tested on: HOP-62 NSCLC
# UACC-257 melanoma = tested on: UACC-257 melanoma
# HCT-15 colon = tested on: HCT-15 colon
# PC-3 prostate = tested on: PC-3 prostate
# U251 CNS = tested on: U251 CNS
# HCT-116 colon = tested on: HCT-116 colon
# HOP-92 NSCLC = tested on: HOP-92 NSCLC
# MDA-MB-231 breast = tested on: MDA-MB-231 breast
# SW-620 colon = tested on: SW-620 colon
# SK-MEL-28 melanoma = tested on: SK-MEL-28 melanoma
# HCC-2998 colon = tested on: HCC-2998 colon
# 786-0 renal = tested on: 786-0 renal
# T-47D breast = tested on: T-47D breast
# EKVX NSCLC = tested on: EKVX NSCLC
# MCF7 breast = tested on: MCF7 breast
# HS 578T breast = tested on: HS 578T breast
# NCI/ADR-RES ovarian = tested on: NCI/ADR-RES ovarian
# SK-MEL-5 melanoma = tested on: SK-MEL-5 melanoma
# LOX IMVI melanoma = tested on: LOX IMVI melanoma
# KM12 colon = tested on: KM12 colon
# MDA-MB-435 = tested on: MDA-MB-435
# SK-OV-3 ovarian = tested on: SK-OV-3 ovarian
# HL-60(TB) leukemia = tested on: HL-60(TB) leukemia
# SF-268 CNS = tested on: SF-268 CNS
# UACC-62 melanoma = tested on: UACC-62 melanoma
# RPMI-8226 leukemia = tested on: RPMI-8226 leukemia
# UO-31 renal = tested on: UO-31 renal
# SR leukemia = tested on: SR leukemia
# HT29 colon = tested on: HT29 colon
# MOLT-4 leukemia = tested on: MOLT-4 leukemia
# OVCAR-4 ovarian = tested on: OVCAR-4 ovarian
# IGROV1 ovarian = tested on: IGROV1 ovarian
# SK-MEL-2 melanoma = tested on: SK-MEL-2 melanoma
# A549 NSCLC = tested on: A549 NSCLC
# MALME-3M melanoma = tested on: MALME-3M melanoma
# NCI-H522 lung = tested on: NCI-H522 lung
# SN12C renal = tested on: SN12C renal
# OVCAR-3 ovarian = tested on: OVCAR-3 ovarian
# OVCAR-5 ovarian = tested on: OVCAR-5 ovarian
smiles,measurement,setting,value
CCCCC(=O)c1ccc2ccccc2c1O,TGI,BT-549 breast,> 100 µM
same,TGI,TK-10 renal,> 100 µM
same,TGI,COLO 205 colon,> 100 µM
same,TGI,NCI-H23 lung,> 100 µM
same,TGI,ACHN renal,> 100 µM
same,TGI,NCI-H226 lung,> 100 µM
same,TGI,K-562 leukemia,> 100 µM
same,TGI,SNB-19 CNS,> 100 µM
same,TGI,SF-295 CNS,> 100 µM
same,TGI,CCRF-CEM leukemia,> 100 µM
same,TGI,RXF 393 renal,> 100 µM
same,TGI,OVCAR-8 ovarian,> 100 µM
same,TGI,M14 melanoma,> 100 µM
same,TGI,A498 renal,> 100 µM
same,TGI,NCI-H460 lung,> 100 µM
same,TGI,SF-539 CNS,> 100 µM
same,TGI,SNB-75 CNS,> 100 µM
same,TGI,DU-145 prostate,> 100 µM
same,TGI,CAKI-1 renal,> 100 µM
same,TGI,HOP-62 NSCLC,> 100 µM
same,TGI,UACC-257 melanoma,> 100 µM
same,TGI,HCT-15 colon,> 100 µM
same,TGI,PC-3 prostate,> 100 µM
same,TGI,U251 CNS,> 100 µM
same,TGI,HCT-116 colon,> 100 µM
same,TGI,HOP-92 NSCLC,> 100 µM
same,TGI,MDA-MB-231 breast,> 100 µM
same,TGI,SW-620 colon,> 100 µM
same,TGI,SK-MEL-28 melanoma,> 100 µM
same,TGI,HCC-2998 colon,> 100 µM
same,TGI,786-0 renal,> 100 µM
same,TGI,T-47D breast,> 100 µM
same,TGI,EKVX NSCLC,> 100 µM
same,TGI,MCF7 breast,> 100 µM
same,TGI,HS 578T breast,> 100 µM
same,TGI,NCI/ADR-RES ovarian,> 100 µM
same,TGI,SK-MEL-5 melanoma,> 100 µM
same,TGI,LOX IMVI melanoma,> 100 µM
same,TGI,KM12 colon,> 100 µM
same,TGI,MDA-MB-435,> 100 µM
same,TGI,SK-OV-3 ovarian,> 100 µM
same,TGI,HL-60(TB) leukemia,> 100 µM
same,TGI,SF-268 CNS,> 100 µM
same,TGI,UACC-62 melanoma,> 100 µM
same,TGI,RPMI-8226 leukemia,> 100 µM
same,TGI,UO-31 renal,> 100 µM
same,TGI,SR leukemia,> 100 µM
same,TGI,HT29 colon,> 100 µM
same,TGI,MOLT-4 leukemia,> 100 µM
same,TGI,OVCAR-4 ovarian,> 100 µM
same,TGI,IGROV1 ovarian,> 100 µM
same,TGI,SK-MEL-2 melanoma,> 100 µM
COc1ccc(-c2onc(N)c2-c2cc(OC)c3c(c2)OCO3)cc1,GI50,BT-549 breast,2.64 µM
same,TGI,BT-549 breast,> 100 µM
same,GI50,A549 NSCLC,2.95 µM
same,TGI,A549 NSCLC,> 100 µM
same,GI50,TK-10 renal,8.49 µM
same,TGI,TK-10 renal,> 100 µM
same,GI50,COLO 205 colon,2.2 µM
same,TGI,COLO 205 colon,6.86 µM
same,GI50,NCI-H23 lung,2.87 µM
same,TGI,NCI-H23 lung,> 100 µM
same,GI50,ACHN renal,6.39 µM
same,TGI,ACHN renal,> 100 µM
same,GI50,NCI-H226 lung,14.2 µM
same,TGI,NCI-H226 lung,> 100 µM
same,GI50,K-562 leukemia,0.473 µM
same,TGI,K-562 leukemia,> 100 µM
same,GI50,SNB-19 CNS,8.24 µM
same,TGI,SNB-19 CNS,> 100 µM
same,GI50,SF-295 CNS,2.32 µM
same,TGI,SF-295 CNS,> 100 µM
same,GI50,CCRF-CEM leukemia,1.81 µM
same,TGI,CCRF-CEM leukemia,> 88.6 µM
same,GI50,RXF 393 renal,2.71 µM
same,TGI,RXF 393 renal,19 µM
same,GI50,OVCAR-8 ovarian,4.22 µM
same,TGI,OVCAR-8 ovarian,> 100 µM
same,GI50,M14 melanoma,1.49 µM
same,TGI,M14 melanoma,7.28 µM
same,GI50,MALME-3M melanoma,6.1 µM
same,TGI,MALME-3M melanoma,> 100 µM
same,GI50,A498 renal,1.5 µM
same,TGI,A498 renal,10.9 µM
same,GI50,NCI-H460 lung,3 µM
same,TGI,NCI-H460 lung,21.1 µM
same,GI50,SF-539 CNS,2.74 µM
same,TGI,SF-539 CNS,11.8 µM
same,GI50,SNB-75 CNS,1.75 µM
same,TGI,SNB-75 CNS,7.32 µM
same,GI50,DU-145 prostate,3.57 µM
same,TGI,DU-145 prostate,> 59.3 µM
same,GI50,CAKI-1 renal,3.58 µM
same,TGI,CAKI-1 renal,> 100 µM
same,GI50,NCI-H522 lung,1.07 µM
same,TGI,NCI-H522 lung,5.39 µM
same,GI50,HOP-62 NSCLC,4.53 µM
same,TGI,HOP-62 NSCLC,> 100 µM
same,GI50,UACC-257 melanoma,3.43 µM
same,TGI,UACC-257 melanoma,> 100 µM
same,GI50,HCT-15 colon,0.958 µM
same,TGI,HCT-15 colon,> 100 µM
same,GI50,PC-3 prostate,4.69 µM
same,TGI,PC-3 prostate,> 100 µM
same,GI50,U251 CNS,2.79 µM
same,TGI,U251 CNS,> 26.1 µM
same,GI50,HCT-116 colon,2.32 µM
same,TGI,HCT-116 colon,50 µM
same,GI50,HOP-92 NSCLC,4.98 µM
same,TGI,HOP-92 NSCLC,> 100 µM
same,GI50,MDA-MB-231 breast,3.4 µM
same,TGI,MDA-MB-231 breast,65.8 µM
same,GI50,SW-620 colon,0.598 µM
same,TGI,SW-620 colon,> 100 µM
same,GI50,SK-MEL-28 melanoma,3.84 µM
same,TGI,SK-MEL-28 melanoma,> 100 µM
same,GI50,HCC-2998 colon,3.7 µM
same,TGI,HCC-2998 colon,> 87.7 µM
same,GI50,786-0 renal,7.24 µM
same,TGI,786-0 renal,> 100 µM
same,GI50,T-47D breast,4.65 µM
same,TGI,T-47D breast,> 100 µM
same,GI50,EKVX NSCLC,6.58 µM
same,TGI,EKVX NSCLC,> 100 µM
same,GI50,MCF7 breast,0.932 µM
same,TGI,MCF7 breast,> 100 µM
same,GI50,HS 578T breast,2.65 µM
same,TGI,HS 578T breast,> 100 µM
same,GI50,NCI/ADR-RES ovarian,0.947 µM
same,TGI,NCI/ADR-RES ovarian,> 21.8 µM
same,GI50,SK-MEL-5 melanoma,2.8 µM
same,TGI,SK-MEL-5 melanoma,> 25.6 µM
same,GI50,LOX IMVI melanoma,3.68 µM
same,TGI,LOX IMVI melanoma,> 100 µM
same,GI50,KM12 colon,1.85 µM
same,TGI,KM12 colon,> 75.4 µM
same,GI50,SN12C renal,4.26 µM
same,TGI,SN12C renal,> 100 µM
same,GI50,MDA-MB-435,0.29 µM
same,TGI,MDA-MB-435,1.13 µM
same,GI50,OVCAR-3 ovarian,2.08 µM
same,TGI,OVCAR-3 ovarian,7.08 µM
same,GI50,OVCAR-5 ovarian,6.74 µM
same,TGI,OVCAR-5 ovarian,> 94 µM
same,GI50,SK-OV-3 ovarian,3.79 µM
same,TGI,SK-OV-3 ovarian,22.6 µM
same,GI50,HL-60(TB) leukemia,1.87 µM
same,TGI,HL-60(TB) leukemia,7.53 µM
same,GI50,SF-268 CNS,8.58 µM
same,TGI,SF-268 CNS,> 100 µM
same,GI50,UACC-62 melanoma,1.96 µM
same,TGI,UACC-62 melanoma,> 46.9 µM
same,GI50,RPMI-8226 leukemia,3.51 µM
same,TGI,RPMI-8226 leukemia,> 86 µM
same,GI50,UO-31 renal,10.5 µM
same,TGI,UO-31 renal,> 100 µM
same,GI50,SR leukemia,0.534 µM
same,TGI,SR leukemia,> 100 µM
same,GI50,HT29 colon,1.65 µM
same,TGI,HT29 colon,11.9 µM
same,GI50,MOLT-4 leukemia,1.93 µM
same,TGI,MOLT-4 leukemia,> 65.5 µM
same,GI50,OVCAR-4 ovarian,13.6 µM
same,TGI,OVCAR-4 ovarian,> 96 µM
same,GI50,IGROV1 ovarian,8.44 µM
same,TGI,IGROV1 ovarian,> 100 µM
